Drawing on US7625948B2, “Ester compound and medicinal use thereof” (Japan Tobacco Inc., priority 2002, dated 2009), this text covers IC50 for 26 molecules.

Assay [1] has as its target T1, Microsomal triglyceride transfer protein (MTP) from bovine liver (Bos taurus, UniProt P55156).
T1 construct: from tissue; host or cells: bovine liver
T1 sequence (P55156 12-887): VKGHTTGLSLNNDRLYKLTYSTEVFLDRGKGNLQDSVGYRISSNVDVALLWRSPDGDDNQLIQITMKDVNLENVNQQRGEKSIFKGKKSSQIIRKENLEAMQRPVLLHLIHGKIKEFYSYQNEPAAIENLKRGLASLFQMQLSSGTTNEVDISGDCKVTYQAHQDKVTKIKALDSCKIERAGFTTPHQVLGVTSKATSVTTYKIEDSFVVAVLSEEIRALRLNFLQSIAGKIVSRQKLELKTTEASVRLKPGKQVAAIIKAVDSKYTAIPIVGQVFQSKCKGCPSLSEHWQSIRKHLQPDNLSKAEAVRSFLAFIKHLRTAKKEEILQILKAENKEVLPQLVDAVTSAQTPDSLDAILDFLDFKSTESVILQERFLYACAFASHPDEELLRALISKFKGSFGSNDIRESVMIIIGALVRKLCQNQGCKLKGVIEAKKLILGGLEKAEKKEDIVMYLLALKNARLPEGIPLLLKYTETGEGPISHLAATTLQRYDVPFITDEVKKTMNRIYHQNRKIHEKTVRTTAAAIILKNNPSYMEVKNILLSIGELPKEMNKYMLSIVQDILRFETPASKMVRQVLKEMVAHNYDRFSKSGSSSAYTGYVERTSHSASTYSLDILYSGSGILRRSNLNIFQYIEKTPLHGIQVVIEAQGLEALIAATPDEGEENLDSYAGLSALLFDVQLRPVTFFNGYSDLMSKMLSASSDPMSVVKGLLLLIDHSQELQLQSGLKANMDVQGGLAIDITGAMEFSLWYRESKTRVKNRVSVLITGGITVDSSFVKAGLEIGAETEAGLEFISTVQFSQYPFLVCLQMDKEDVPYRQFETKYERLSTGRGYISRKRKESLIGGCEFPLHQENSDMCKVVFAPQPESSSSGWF
T1 sequence (P05307 21-510 partner): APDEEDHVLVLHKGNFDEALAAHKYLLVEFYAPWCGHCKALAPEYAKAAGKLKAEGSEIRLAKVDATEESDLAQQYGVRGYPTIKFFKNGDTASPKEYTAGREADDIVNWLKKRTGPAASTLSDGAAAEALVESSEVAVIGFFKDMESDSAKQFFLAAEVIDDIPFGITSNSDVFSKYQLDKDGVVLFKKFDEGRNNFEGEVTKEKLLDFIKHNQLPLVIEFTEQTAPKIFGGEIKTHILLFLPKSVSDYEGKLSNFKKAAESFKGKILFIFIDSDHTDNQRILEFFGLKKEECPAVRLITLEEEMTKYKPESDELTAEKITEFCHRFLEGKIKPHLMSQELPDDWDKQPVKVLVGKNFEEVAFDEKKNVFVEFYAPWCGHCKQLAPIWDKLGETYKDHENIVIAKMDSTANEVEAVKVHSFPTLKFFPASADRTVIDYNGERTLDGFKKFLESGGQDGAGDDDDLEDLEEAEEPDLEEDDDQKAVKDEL
Nature of the assay: Test Example 1: inhibition of interliposomal triglyceride (TG) transfer activity by MTP (also used for metabolites in Test Example 8). It counts as biochemical. The following applies: MTP-mediated 14C-triolein transfer between liposomes, 37° C., one hour; read-out: Test Example 1 MTP inhibition IC50. As for the experimental part:
Inhibition of Interliposomal Triglyceride (TG) Transfer Activity by MTP
Microsomal triglyceride transfer protein (MTP) from bovine liver was partially purified in such a way described below. A buffer (50 mM Tris, 250 mM sucrose, 1 mM EDTA, 0.02% NaN3 (pH 7.4)) for making a homogenate preparation was added to bovine liver, and the mixture was homogenated under ice-cooling, then centrifuged at 10,000×g (4° C., 30 minutes). The supernatant was adjusted to pH 5.1 with hydrochloric acid, and stirred for 30 minutes. The solution was further centrifuged at 10,000×g (4° C., 30 minutes), and 1 mM Tris buffer was added to the precipitated residue, and the mixture was adjusted to pH 8.6 with sodium hydroxide. After addition of 2.7M ammonium sulfate solution, the mixture was stirred for 30 minutes, then centrifuged at 10,000×g (4° C., 40 minutes). The resulting supernatant was served as a crude extraction fraction of MTP and stored at −80° C. under freezing. In its practical use, the crude extraction fraction of MTP was purified by column chromatography on diethylaminoethyl (DEAE) Sepharose using FPLC (Fast Performance Liquid Chromatography) system, and the purified MTP was used for the test.
Small unilamellar-vesicle (SUV) liposome (donor, 0.25 mol % triolein, 5 mol % cardiolipin) labeled with ^14C-triolein and non-labeled SUV liposome (acceptor, 0.25 mol % triolein) were prepared. A fixed amount of donor and acceptor, and MTP were mixed with a sample dissolved in DMSO or with DMSO. The mixture was incubated in a 15 mM Tris hydrochloride buffer (pH 7.4) containing 40 mM sodium chloride, 1 mM EDTA (ethylenediaminetetraacetic acid), 0.02% NaN3 and 0.5% bovine serum albumin at 37° C. for one hour. After completion of the incubation, a suspension of DEAE cellulose (50% v/v) in 15 mM Tris hydrochloride buffer (pH 7.4) was added to the above solution, and the mixture was centrifuged to separate the donor and the acceptor. The radioactivity in the acceptor was measured by liquid scintillation counter. The value obtained by subtracting the radioactivity in the blank from the amount of radioactivity in the acceptor of a DMSO group was determined as MTP-mediated TG transfer activity, and it was compared with the value obtained by subtracting the radioactivity in the blank from the radioactivity in a sample group. The blank was prepared by adding 15 mM Tris-HCl buffer (pH 7.4) in place of MTP. Inhibition rate (%) was calculated from the values obtained according to the following equation.
Inhibition rate (%)=100×(1 minus ((radioactivity of sample group minus radioactivity of blank group)/(radioactivity of DMSO group minus radioactivity of blank group))).
50% Inhibition rate (IC50) was determined on the basis of the above equation.
Inhibitory Activity on MTP and apo B Secretion Inhibition by Metabolites
In a similar manner to Test Examples 1 and 2, the activity of metabolites was assayed.

The next assay deals with HepG2 cells. Nature of the assay: Test Example 2: inhibition of apolipoprotein B secretion from HepG2 cells, ELISA (also used for metabolites in Test Example 8). The following applies: Homo sapiens, 24 hours, apo B in supernatant by ELISA, read-out: Test Example 2 Inhibition of apo B secretion IC50. It counts as cell-based. An outline of the steps:
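HepG2 cells cultured 24 h, then exposed 24 h to compounds or metabolites in medium with 0.5% DMSO. Secreted apo B in supernatant quantified by sandwich ELISA (HRP, ABTS, 405 nm) against purified human apo B standard; % inhibition vs DMSO group, IC50 derived.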

On to `CCOC(=O)C(COC(=O)Cc1ccc(NC(=O)c2ccccc2-c2ccc(C(F)(F)F)cc2)cc1)(Cc1ccccc1)C(=O)OCC` [Example 1-26], for which the IC50 in assay [1] stood at 630 nM; in the assay with HepG2 cells, 620 nM.
In the same order, the values of `CCOC(=O)C(COC(=O)Cc1ccc(NC(=O)c2ccccc2-c2ccc(C(F)(F)F)cc2)cc1C)(C(=O)OCC)c1ccccc1` [Example 1-27] are 7 nM and 26 nM.
On the same counts, the results for `O=C(Cc1ccc(OC(=O)c2ccccc2-c2ccc(C(F)(F)F)cc2)cc1)OCC(C(=O)NCC(F)(F)F)(C(=O)NCC(F)(F)F)c1ccccc1` [Example 1-28] are 35 nM and 640 nM.
As for `CCOC(=O)C(COC(=O)Cc1ccc(NC(=O)c2ccccc2-c2ccc(C(F)(F)F)cc2)cc1)(C(=O)OCC)C1CCCCC1` [Example 1-31], the IC50 in assay [1] turned out to be 84.5 nM; in the assay with HepG2 cells, 61 nM.
In the same order, the values of `O=C(Cc1ccc(NC(=O)c2ccccc2-c2ccccc2)cc1)OCC(C(=O)NCC(F)(F)F)(C(=O)NCC(F)(F)F)c1ccccc1` [Example 1-32] are 8.6 nM and 720 nM.
On the same counts, the results for `CCOC(=O)C(COC(=O)Cc1ccc(NC(=O)c2ccccc2-c2ccc(C(F)(F)F)cc2)cc1C(F)(F)F)(C(=O)OCC)c1ccccc1` [Example 1-34] are 23 nM and 100 nM.
In the case of `CNC(=O)C(COC(=O)Cc1ccc(NC(=O)c2ccccc2-c2ccc(C(F)(F)F)cc2)cc1)(C(=O)NC)c1ccccc1` [Example 1-36], the IC50 in assay [1] was determined as 2 nM; with HepG2 cells, 150 nM.
For the molecule `CCOC(=O)C(COC(=O)Cc1ccc(NC(=O)c2ccccc2-c2ccc(C(F)(F)F)cc2)cc1)(C(=O)OCC)c1ccccn1` [Example 1-37], the IC50 was found to be 3.5 nM in assay [1] and 47 nM with HepG2 cells.
Take `CCOC(=O)C(COC(=O)Cc1ccc(NC(=O)c2ccccc2-c2ccc(C(F)(F)F)cc2)cc1)(C(=O)OCC)c1cccnc1` [Example 1-38]: the values for the IC50 (in assay [1]; with HepG2 cells) were 6 nM and 320 nM, respectively.
On the same counts, the results for `CCNC(=O)C(COC(=O)Cc1ccc(OC(=O)c2ccccc2-c2ccc(C(F)(F)F)cc2)cc1)(C(=O)NCC)c1ccccc1` [Example 1-39] are 0.66 nM and 160 nM.
On the same counts, the results for `CCOC(=O)C(COC(=O)Cc1ccc(NC(=O)c2ccccc2-c2ccc(C(F)(F)F)cc2)c(C(F)(F)F)c1)(C(=O)OCC)c1ccccc1` [Example 1-40] are 6.9 nM and 2.1 nM.
On to `CCCCNC(=O)C(COC(=O)Cc1ccc(NC(=O)c2ccccc2-c2ccc(C(F)(F)F)cc2)cc1)(C(=O)NCCCC)c1ccccc1` [Example 1-42], for which the figures for the IC50 (in assay [1]; with HepG2 cells) were 4.4 nM and 35 nM, respectively.
On the same counts, the results for `CCOC(=O)C(COC(=O)Cc1ccc(NC(=O)c2ccccc2-c2ccc(OC)cc2)cc1)(C(=O)OCC)c1ccccc1` [Example 1-47] are 4.5 nM and 750 nM.
On the same counts, the results for `CCNC(=O)C(CCOC(=O)Cc1ccc(NC(=O)c2ccccc2-c2ccc(C(F)(F)F)cc2)cc1)(C(=O)NCC)c1ccccc1` [Example 1-48] are 3.2 nM and 9.7 nM.
In the same order, the values of `CCCNC(=O)C(CCOC(=O)Cc1ccc(NC(=O)c2ccccc2-c2ccc(C(F)(F)F)cc2)cc1)(C(=O)NCCC)c1ccccc1` [Example 1-49] are 20 nM and 5.3 nM.
For `CCNC(=O)C(COC(=O)Cc1ccc(NC(=O)c2ccccc2Oc2ccccc2)cc1)(C(=O)NCC)c1ccccc1` [Example 1-51], the IC50 was 0.96 nM in assay [1] and 530 nM in the assay with HepG2 cells.
In the same order, the values of `CCCCOc1ccccc1C(=O)Nc1ccc(CC(=O)OCC(C(=O)NCC)(C(=O)NCC)c2ccccc2)cc1` [Example 1-52] are 10 nM and 690 nM.
In the same order, the values of `CCOC(=O)C(COC(=O)Cc1ccc(NC(=O)c2ccccc2-c2cccc(C(F)(F)F)c2)cc1)(C(=O)OCC)c1ccccc1` [Example 1-53] are 0.43 nM and 860 nM.
On the same counts, the results for `CCCOC(=O)C(COC(=O)Cc1ccc(NC(=O)c2ccccc2-c2ccc(C(F)(F)F)cc2)cc1)(C(=O)OCCC)c1ccccc1` [Example 1-62] are 5 nM and 46 nM.
`CC(C)COC(=O)C(COC(=O)Cc1ccc(NC(=O)c2ccccc2-c2ccc(C(F)(F)F)cc2)cc1)(C(=O)OCC(C)C)c1ccccc1` [Example 1-63]: the IC50 was determined as 16 nM in assay [1] and 90 nM in the assay with HepG2 cells.
On the same counts, the results for `CC(C)CCNC(=O)C(COC(=O)Cc1ccc(NC(=O)c2ccccc2-c2ccc(C(F)(F)F)cc2)cc1)(C(=O)NCCC(C)C)c1ccccc1` [Example 1-67] are 27 nM and 28 nM.
On the same counts, the results for `CCNC(=O)C(COC(=O)Cc1ccc(NC(=O)c2ccccc2C2CCCCC2)cc1)(C(=O)NCC)c1ccccc1` [Example 1-69] are 9.1 nM and 90 nM.
In the same order, the values of `CCNC(=O)C(COC(=O)Cc1ccc(NC(=O)c2ccccc2-c2ccc(Cl)cc2)cc1)(C(=O)NCC)c1ccccc1` [Example 1-70] are 1.6 nM and 270 nM.
For `CCNC(=O)C(COC(=O)Cc1ccc(NC(=O)c2ccccc2-c2ccc(Cl)c(Cl)c2)cc1)(C(=O)NCC)c1ccccc1` [Example 1-71], the results for the IC50 (in assay [1]; with HepG2 cells) were 1.8 nM and 120 nM, respectively.
On the same counts, the results for `CCNC(=O)C(COC(=O)Cc1ccc(NC(=O)c2ccccc2-c2ccc(C(F)(F)F)cc2)c(C(=O)N(C)C)c1)c1ccccc1` (stereo not shown) [Example 2-21] are 1.8 nM and 8.9 nM.
In the same order, the values of `CCOC(=O)C(COC(=O)Cc1ccc(NC(=O)c2ccccc2-c2ccc(C(F)(F)F)cc2)c(C(=O)N2CCCCC2)c1)(C(=O)OCC)c1ccccc1` [Example 2-23] are 2.7 nM and 0.61 nM.
